Measured values as given in patent publication US20150140043A1, “IMMUNOMODULATORY METHODS USING NOTCH AGONISTS” (INSTITUT NATIONAL DE LA SANTE DE LA RECHERCHE MEDICAL …, priority 2012, published 2015).

Assays:
Assay type in all cases: cell-based, human
[1] = test system: CD4+CD25- T cell proliferation; assay: Sensitizing assay: cells pre-incubated with NOTCH ligands, washed, then cultured with anti-CD3 with or without Treg; conditions: for Percentage of inhibition of cell proliferation by Treg: CD4+CD25- T cells pre-exposed overnight to ligand (5 μg/ml), Treg ratio 1:8, 5 days anti-CD3, mean of 4 experiments; for Effect of exposure of Treg to ligand on Treg capacity to suppress CD4+CD25- proliferation: Treg exposed to ligand, anti-CD3 mAbs, data not shown
Procedure: FIG. 1: NOTCH signalling is involved in Treg mediated inhibition of anti-CD3 stimulated CD4^+CD25^− T cell proliferation • A) Various ratio of CD4^+CD25^− T cells and CD4^+CD25^high T cells were cultured for 5 days in coated wells with anti-CD3 (1 μg/ml) in the presence or not of inhibitor of g-secretase (GSI 10 μM). Percentages of inhibition were calculated from the raw data using the equations: 1—(mean cpm of co-culture wells divided by mean cpm of CD4^+CD25^− cells cultured alone)×100. The data represent the mean±SEM and are representative of 5 independent experiments. * indicates P<0.05. • B) CD4^+CD25^−T cells were cultured for 18 hours in coated wells with anti-CD3 and NOTCH ligands (5 μg/ml) or IgG control (5 μg/ml). Then, T cells were washed and incubated for 5 days in coated wells with anti-CD3 in the absence or presence of Treg at ratio 1:8. The data represent the mean±SEM of inhibition of T cell proliferation of 5 independent experiments.
(§1) Peripheral blood mononuclear cells were separated by Ficoll-Hypaque centrifugation (Amersham Biosciences) from buffy coats obtained from healthy blood donors (EFS, Créteil). CD4^+ CD25^− T cells and CD4^+CD25^high T cells were isolated using a CD4^+ T cell enrichment column and a human CD4^+CD25^+ Treg isolation kit purchased from Miltenyi Biotec. CD4^+CD25^− cells and CD4^+CD25^+ cells were enriched to greater than 95% purity. Cells were plated in media at a concentration of 1.25×10^5 to 5×10^5 cells per ml in a 96-well round-bottom plates coated with 1 μg/ml of anti-CD3 (UCHT1) and 5 μg/ml of NOTCH Ligand (DL-1-Fc, DL-4-Fc and Jagged-1-Fc are a generous Gift from Dr. Sakano).
A total of 2.5×10^4 CD4^+CD25^− T cells were cultured with various ratios of CD4^+CD25^high cells and 1 μg/ml of anti-CD3 for 5 days, in the presence or absence of 10 μm of the gamma-secretase inhibitor Compound E. A total of […] [^3H] thymidine (Amersham Pharmacia) was added to the wells during the last 16 hours of culture. The cells were then harvested and assessed for [^3H] thymidine incorporation using a liquid scintillation counter. Results were expressed as mean cpm of quadriplicate culture wells.
(§2) Percentage of inhibition was calculated as follows: 1−(mean cpm of co-culture wells divided by mean cpm of CD4^+CD25^− cells cultured alone)×100.
In sensitizing assays CD4^+CD25^− and CD4^+CD25^high were pre-incubated during 16 hours on coated NOTCH Ligand. Cells were also collected, washed and incubated alone or with Treg and stimulated as described above. Some experiments were performed in the presence of anti-TGF-β or IgG control (2.5 μg/ml). […]

[2] = test system: TGF-βRII protein expression; assay: Surface staining / flow cytometry of TGF-βRII protein on CD4+CD25- T cells; conditions: CD4+CD25- T cells incubated 48 hours with ligand
Procedure: FIG. 3: TGF-βRII expression on effector T cells after NOTCH ligands exposure • A) CD4^+CD25^−T cells were purified using Miltenyi microbeads from PBMC and cultured for 3 hours in coated wells with anti-CD3 (200 ng/ml) and NOTCH ligands (5 μg/ml) or IgG control (5 μg/ml). Quantitative real-time PCR was performed to measure the transcripts levels of TGF-βRII. Data shown are mean±SEM and are representative of 4 independent experiments. * indicates P<0.05. • B) Protein levels of TGF-βRII in CD4^+CD25^−T cells stimulated to DL-1, DL-4 and Jagged-1 using FACS analysis. Mean of fluorescence are represented±SEM. * indicates P<0.05.
For surface staining, the cells were harvested, washed twice and resuspended in 1% FCS buffer. The cells were stained with mAbs for CD4 (Beckman Coulter), TGF-βRII (R&D) as per manufacturer's instructions for 20 min at 4° C. Cells were then analyzed by flow cytometry using FACScalibur™ and CellQuest™ software (Becton Dickinson, San Jose, Calif., USA).
TGF-βRII protein expression was assessed by flow cytometry. In these experiments, effector CD4^+CD25^− T cells were isolated and incubated for 48 hours in the presence of NOTCH ligands or IgG control.

[3] = test system: CD4+CD25- T cell proliferation; assay: Sensitization of CD4+CD25- T cells to low-dose TGF-β (anti-CD3 plus NOTCH ligands, no Treg); conditions: anti-CD3 plus ligand (5 μg/ml), TGF-β 0.1 ng/ml, 5 days
Procedure: (§3) FIG. 2: NOTCH suppresses the proliferation of CD4^+CD25^− T cells through TGF-β • A) CD4^+CD25^−T cells were cultured for 5 days in coated wells with anti-CD3 and NOTCH ligands (5 μg/ml) or IgG control (5 μg/ml) in the presence of Treg at ratio 1:16. Anti-TGF-β or IgG control mAbs (2.5 μg/ml) were added at the beginning of the co-culture. The data represent the mean±SEM. * indicates P<0.05. • B) CD4^+CD25^−T cells were cultured for 5 days in coated wells with anti-CD3 and NOTCH ligands (5 μg/ml) or IgG control (5 μg/ml). Low dose of TGF-β (0.1 ng/ml) was added. The data represent the mean±SEM.
as §1, with “Sakano). […]” for “Sakano).”

[4] = test system: CD4+CD25- T cell proliferation; assay: Coculture of effector T cells and Treg at low ratio on immobilized NOTCH ligands, with or without anti-TGF-β; set-up: Mean inhibition of T cell proliferation / Mean inhibition of T cell proliferation in the presence of anti-TGF-β mAbs: unit of the concentration uncertain
Procedure: as §3, §1, §2
In sensitizing assays CD4^+CD25^− and CD4^+CD25^high were pre-incubated during 16 hours on coated NOTCH Ligand. Cells were also collected, washed and incubated alone or with Treg and stimulated as described above. Some experiments were performed in the presence of anti-TGF-β or IgG control (2.5 μg/ml).
The implication of NOTCH1 on effector T cell responses in the presence of Treg through a TGF-β signalling mechanism has not yet been elucidated. To test this, a coculture experiments of effector T cells and Treg at a low ratio (ratio 1:16) in the presence of immobilized NOTCH ligands DL1, DL4 and Jagged-1 or Ig controls at […] was performed. […]

Row | Molecule | Percentage of inhibition of cell proliferation by Treg [1] | Effect of exposure of Treg to ligand on Treg capacity to suppress CD4+CD25- proliferation [1] | TGF-βRII protein expression (MFI) [2] | Percentage of inhibition of proliferation in the presence of TGF-β [3] | Mean inhibition of T cell proliferation in the presence of anti-TGF-β mAbs ([4]; coculture with Treg at ratio 1:16, immobilized ligand at 5 µg/mL, anti-TGF-β 2.5 µg/mL added at the beginning of the culture) | Mean inhibition of T cell proliferation ([4]; coculture with Treg at ratio 1:16, immobilized ligand at 5 µg/mL, no anti-TGF-β) | Effect of anti-TGF-β on coculture of Treg and ligand-treated effector T cells ([4]; Treg ratio 1:16, anti-TGF-β 2.5 μg/ml)
1 | Jagged-1: recombinant NOTCH ligand Jagged-1, used coated as Jagged-1-Fc (SEQ ID NO: 5) | 65% | did not modify the Treg capacity | 130 | 87.8% | 19.3% | 65% | 
2 | DL-1: recombinant NOTCH ligand Delta-like 1, used coated as DL-1-Fc (SEQ ID NO: 8) (protein, listed as Homo sapiens) MGSRCALALAVLSALLCQVWSSGVFELKLQEFVNKKGLLGNRNCCRGGAGPPPCACRTFFRVCLKHYQASVSPEPPCTYGSAVTPVLGVDSFSLPDGGGADSAFSNPIRFPFGFTWPGTFSLIIEALHTDSPDDLATENPERLISRLATQRHLTVGEEWSQDLHSSGRTDLKYSYRFVCDEHYYGEGCSVFCRPRDDAFGHFTCGERGEKVCNPGWKGPYCTEPICLPGCDEQHGFCDKPGECKCRVGWQGRYCDECIRYPGCLHGTCQQPWQCNCQEGWGGLFCNQDLNYCTHHKPCKNGATCTNTGQGSYTCSCRPGYTGATCELGIDECDPSPCKNGGSCTDLENSYSCTCPPGFYGKICELSAMTCADGPCFNGGRCSDSPDGGYSCRCPVGYSGFNCEKKIDYCSSSPCSNGAKCVDLGDAYLCRCQAGFSGRHCDDNVDDCASSPCANGGTCRDGVNDFSCTCPPGYTGRNCSAPVSRCEHAPCHNGATCHERGHRYVCECARGYGGPNCQFLLPELPPGPAVVDLTEKLEGQGGPFPWVAVCAGVILVLMLLLGCAAVVVCVRLRLQKHRPPADPCRGETETMNNLANCQREKDISVSIIGATQIKNTNKKADFHGDHSADKNGFKARYPAVDYNLVQDLKGDDTAVRDAHSKRDTKCQPQGSSGEEKGTPTTLRGGEASERKRPDSGCSTSKDTKYQSVYVISEEKDECVIATEV | 64.8% | did not modify the Treg capacity | 85 | 42.9% |  |  | did not affect
